The values that follow come from ChEMBL document CHEMBL3046865, “Antibacterial activity of alkyl gallates and related compounds against Ralstonia solanacearum” (2011).

SMILES strings stand for the structures. Active and inactive are the calls of the source. The calls are words filed in the database; no cut-off is given here.

Test [1] has as its system Ralstonia solanacearum.
Test [2] deals with Ralstonia solanacearum. The source holds these as a separate data set.
Test [3] deals with Ralstonia solanacearum. The test is classed as functional.
Test [4] has as its system Ralstonia solanacearum. The test is classed as functional. The source holds these as a separate data set.
In test [5] the test system is Ralstonia solanacearum. Type of test: functional. This is another data set of the same source.
Test [6] relates to Ralstonia solanacearum. Type of test: functional. This is another data set of the same source.

`O=c1oc2c(O)c(O)cc3c(=O)oc4c(O)c(O)cc1c4c23`: the DIZ result in test [1] and in test [2] was “inactive” throughout.
As to `COC(=O)c1ccccc1O`, the DIZ entry in test [1] and in test [2] was “inactive” each time.
In the case of `COC(=O)c1cccc(O)c1` [METHYL 3-HYDROXYBENZOATE], in test [1], the DIZ entry is “inactive”. Further, in test [3], the “diameter of the inhibition zone (DIZ)” value came out at 23 mm.
`O=c1c(O)c(-c2ccc(O)c(O)c2)oc2cc(O)cc(O)c12`: the DIZ result in test [1] and in test [2] was “inactive” in each case.
On to `COC(=O)c1cccc(O)c1O` [METHYL 2,3-DIHYDROXYBENZOATE], for which the figures for the “diameter of the inhibition zone (DIZ)” value in test [4] and in test [3] were 13 mm and 58 mm, respectively.
In the case of `COC(=O)c1cc(O)c(O)c(O)c1` [GALLIC ACID METHYL ESTER], the “diameter of the inhibition zone (DIZ)” value in test [4] was 22 mm; in test [5], 18 mm; in test [3], 54 mm; in test [6], 11 mm.
For the compound `CCCCCCCCCOC(=O)c1ccc(O)cc1`, the DIZ entry in test [1] and in test [2] was “inactive” in each case.
In the case of `COc1cc(/C=C/C(=O)O)ccc1O`, the DIZ entry in test [1] and in test [2] was “inactive” in each case.
With `O=C(/C=C/c1ccc(O)c(O)c1)O[C@@H]1C[C@](O)(C(=O)O)C[C@@H](O)[C@H]1O`, the DIZ entry in test [1] and in test [2] was “inactive” throughout.
For `O=C(O)/C=C/c1ccc(O)cc1` [COUMARIC ACID], the DIZ entry in test [1] was “inactive”. Further, the “diameter of the inhibition zone (DIZ)” value in test [3] is listed as 11 mm.
`O=C(O)/C=C/c1ccc(O)c(O)c1`: the DIZ entry in test [1] and in test [2] was “inactive” each time.
Turning to `COC(=O)c1cc(O)ccc1O` [METHYL 2,5-DIHYDROXYBENZOATE], the DIZ result in test [1] is “inactive”. In addition, the “diameter of the inhibition zone (DIZ)” value in test [3] is given as 43 mm.
For `COC(=O)c1ccc(O)cc1O` [METHYL 2,4-DIHYDROXYBENZOATE], the DIZ entry in test [1] was “inactive”. Further, the “diameter of the inhibition zone (DIZ)” value in test [3] was found to be 32 mm.
Consider `CCCOC(=O)c1cc(O)c(O)c(O)c1` [PROPYL GALLATE], for which the “diameter of the inhibition zone (DIZ)” value in test [4] was determined as 11 mm; in test [3], 31 mm.
Turning to `COC(=O)c1ccc(OC)cc1O`, the DIZ result in test [1] was “inactive”. For the same compound, the “diameter of the inhibition zone (DIZ)” value in test [3] was 11 mm.
The matching figures for `O=C(O)c1cc(O)c(O)c(O)c1` [GALLIC ACID]: “inactive” and 12 mm.
As to `C[C@@H]1O[C@@H](OC[C@H]2O[C@@H](Oc3c(-c4ccc(O)c(O)c4)oc4cc(O)cc(O)c4c3=O)[C@H](O)[C@@H](O)[C@@H]2O)[C@H](O)[C@H](O)[C@H]1O`, the DIZ entry in test [1] and in test [2] was “inactive” in each case.
In the case of `COc1cc(/C=C/C(=O)O)cc(OC)c1O`, the DIZ entry in test [1] and in test [2] was “inactive” each time.
As to `COC(=O)c1ccc(O)cc1` [METHYLPARABEN], in test [1], the DIZ result is “inactive”. Besides, in test [3], the “diameter of the inhibition zone (DIZ)” value stood at 36 mm.
As to `COC(=O)c1ccc(O)c(O)c1` [METHYL PROTOCATECHUATE], the “diameter of the inhibition zone (DIZ)” value in test [4] came to 11 mm; in test [3], 37 mm.
In the case of `COC(=O)c1ccc(O)c(OC)c1` [METHYL VANILLATE], the DIZ entry in test [1] was “inactive”. In addition, in test [3], the “diameter of the inhibition zone (DIZ)” value is listed as 15 mm.
Regarding `O=C(O)/C=C/c1ccccc1O` [O-COUMARIC ACID], the DIZ entry in test [1] was “inactive”. Further, the “diameter of the inhibition zone (DIZ)” value in test [3] stood at 16 mm.
As for `COc1ccc(/C=C/C(=O)O)cc1O`, the DIZ result in test [1] and in test [2] was “inactive” in each case.
As to `O=C(O)c1ccc(O)cc1` [PARABEN], the DIZ result in test [1] is “inactive”. Also, the “diameter of the inhibition zone (DIZ)” value in test [3] is 13 mm.
For the compound `O=C(O)c1ccccc1O` [SALICYLIC ACID], the “diameter of the inhibition zone (DIZ)” value in test [3] came out at 16 mm.
Turning to `O=C(O)/C=C/c1ccccc1` [CINNAMIC ACID], in test [1], the DIZ entry is “inactive”. Also, the “diameter of the inhibition zone (DIZ)” value in test [3] is 13 mm.
In the case of `CCCCCCCCOC(=O)c1cc(O)c(O)c(O)c1` [OCTYL_GALLATE], the “diameter of the inhibition zone (DIZ)” value in test [4] was determined as 11 mm; in test [3], 12 mm.
The matching figures for `CCOC(=O)c1cc(O)c(O)c(O)c1` [ETHYLGALLATE]: 18 mm and 42 mm.
Turning to `CCOC(=O)c1ccc(O)cc1` [ETHYLPARABEN], in test [1], the DIZ entry was “inactive”. In test [3], the “diameter of the inhibition zone (DIZ)” value is listed as 29 mm.
With `O=C(O)c1cccc(O)c1` [3-HYDROXYBENZOIC ACID], the DIZ entry in test [1] was “inactive”. In test [3], the “diameter of the inhibition zone (DIZ)” value is recorded as 14 mm.
`CCCCCCCCCCCCOC(=O)c1cc(O)c(O)c(O)c1`: the DIZ entry in test [1] and in test [2] was “inactive” in each case.
For the compound `COC(=O)c1cc(OC)cc(OC)c1`, the DIZ entry in test [1] and in test [2] was “inactive” each time.
In the case of `COC(=O)c1cc(O)cc(O)c1` [METHYL 3,5-DIHYDROXYBENZOATE], the DIZ entry in test [1] was “inactive”. The “diameter of the inhibition zone (DIZ)” value in test [3] worked out at 18 mm.
In the case of `CCCOC(=O)c1ccc(O)cc1` [PROPYLPARABEN], in test [1], the DIZ entry was “inactive”. For the same compound, the “diameter of the inhibition zone (DIZ)” value in test [3] is reported as 17 mm.
